Target: T1, LCK KD GST (225-509) (Homo sapiens, UniProt P06239)
T1 construct: LCK KD GST (225-509); GST
Test: LCK Homogenous Time Resolved Fluorescent (HTRF) kinase assay
Assay type: biochemical
Experimental: The LCK HTRF assay begins with LCK in the presence of ATP phosphorylating the biotinylated peptide Gastrin. The reaction incubates for 90 min. To quench the assay detection reagents are added which both stop the reaction by diluting out the enzyme and chelating the metals due to the presence of EDTA. Once the detection reagents are added the assay incubates for 30 min to allow for equilibration of the detection reagents.
Buffer conditions are as follows: 50 mM HEPES pH 7.5, 50 mM NaCl, 20 mM MgCl, 5 mM MnCl, 2 mM DTT, 0.05% BSA.
The assay is quenched and stopped with 160 μL of detection reagent. Detection reagents are as follows: Buffer made of 50 mM Tris, pH 7.5, 100 mM NaCl, 3 mM EDTA, 0.05% BSA, 0.1% Tween20.
The assay plate is read in either a Discovery or a RubyStar.

T1 sequence (P06239 225-509): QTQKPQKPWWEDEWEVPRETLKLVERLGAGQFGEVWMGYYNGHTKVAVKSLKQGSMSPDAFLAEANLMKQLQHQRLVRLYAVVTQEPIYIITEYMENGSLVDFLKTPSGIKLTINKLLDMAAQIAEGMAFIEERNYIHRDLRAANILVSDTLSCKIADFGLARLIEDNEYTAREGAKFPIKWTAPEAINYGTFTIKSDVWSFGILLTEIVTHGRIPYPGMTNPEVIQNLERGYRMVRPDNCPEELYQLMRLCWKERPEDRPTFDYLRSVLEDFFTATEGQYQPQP

IC50, < 1000 nM:
CNc1nccc(-c2cccnc2Oc2cc(C(=O)Nc3cc(C(F)(F)F)ccc3N3CCCCC3)ccc2Cl)n1 [4-chloro-3-((3-(2-(methylamino)-4-pyrimidinyl)-2-pyridinyl)oxy)-N-(2-(1-piperidinyl)-5-(trifluoromethyl)phenyl)benzamide]
CNc1nccc(-c2cccnc2Oc2cc(Br)cc(C(=O)Nc3cccc(C(C)C)c3)c2)n1 [3-bromo-5-((3-(2-(methylamino)-4-pyrimidinyl)-2-pyridinyl)oxy)-N-(3-(1-methylethyl)phenyl)benzamide]
Cc1ccc(C(=O)Nc2cccc(C(F)(F)F)c2)cc1Oc1ncccc1-c1ccncn1 [4-methyl-3-((3-(4-pyrimidinyl)-2-pyridinyl)oxy)-N-(3-(trifluoromethyl)phenyl)benzamide]
CNc1ncnc(-c2cccnc2Oc2cc(F)cc(C(=O)Nc3cccc(C(C)C)c3)c2)n1 [3-fluoro-5-((3-(4-(methylamino)-1,3,5-triazin-2-yl)-2-pyridinyl)oxy)-N-(3-(1-methylethyl)phenyl)benzamide]
COc1ccc(C(=O)Nc2cccc(C(F)(F)F)c2)cc1Nc1ncccc1-c1ccncn1 [4-(methyloxy)-3-((3-(4-pyrimidinyl)-2-pyridinyl)amino)-N-(3-(trifluoromethyl)phenyl)benzamide]
CNc1nccc(-c2cccnc2Oc2cc(C(=O)NCc3cccc(C(F)(F)F)c3)ccc2C)n1 [4-methyl-3-((3-(2-(methylamino)-4-pyrimidinyl)-2-pyridinyl)oxy)-N-((3-(trifluoromethyl)phenyl)methyl)benzamide]
CNc1nccc(-c2cccnc2Oc2cc(C(=O)Nc3cccc(OCc4ccccc4)c3)ccc2C)n1 [4-methyl-3-((3-(2-(methylamino)-4-pyrimidinyl)-2-pyridinyl)oxy)-N-(3-((phenylmethyl)oxy)phenyl)benzamide]
CCNc1ncnc(-c2cccnc2Oc2cc(C(=O)Nc3cccc(C(C)C)c3)ccc2C)n1 [3-((3-(4-(ethylamino)-1,3,5-triazin-2-yl)-2-pyridinyl)oxy)-4-methyl-N-(3-(1-methylethyl)phenyl)benzamide]
CNc1nccc(-c2cccnc2Oc2cc(C(=O)Nc3cc(C(F)(F)F)ccc3N3CCCCC3)ccc2C)n1
CNc1nccc(-c2cccnc2Oc2cc(C(=O)N[C@H](C)c3ccccc3)ccc2C)n1 [4-methyl-3-((3-(2-(methylamino)-4-pyrimidinyl)-2-pyridinyl)oxy)-N-((1R)-1-phenylethyl)benzamide]
CNc1nccc(-c2cccnc2Oc2cc(Br)cc(C(=O)Nc3cc(C(F)(F)F)ccc3N(C)[C@H]3CCN(C)C3)c2)n1 [3-bromo-5-((3-(2-(methylamino)-4-pyrimidinyl)-2-pyridinyl)oxy)-N-(2-(methyl((3S)-1-methyl-3-pyrrolidinyl)amino)-5-(trifluoromethyl)phenyl)benzamide]
C#Cc1cc(Oc2ncccc2-c2ccnc(NC)n2)cc(C(=O)Nc2cccc(C(F)(F)F)c2)c1 [3-ethynyl-5-((3-(2-(methylamino)-4-pyrimidinyl)-2-pyridinyl)oxy)-N-(3-(trifluoromethyl)phenyl)benzamide]
CNc1nccc(-c2cc(N3CCN(C)CC3)cnc2Oc2cc(C(=O)Nc3cccc(C(C)C)c3)ccc2C)n1 [4-methyl-3-((3-(2-(methylamino)-4-pyrimidinyl)-5-(4-methyl-1-piperazinyl)-2-pyridinyl)oxy)-N-(3-(1-methylethyl)phenyl)benzamide]
CC(C)c1cccc(NC(=O)c2cccc(Nc3ncccc3-c3ncnc(N)n3)c2)c1 [3-((3-(4-amino-1,3,5-triazin-2-yl)-2-pyridinyl)amino)-N-(3-(1-methylethyl)phenyl)benzamide]
CNc1nccc(-c2cccnc2Oc2cc(C(=O)Nc3cc(C4CCCCC4)ccc3OC)ccc2C)n1 [N-(5-cyclohexyl-2-(methyloxy)phenyl)-4-methyl-3-((3-(2-(methylamino)-4-pyrimidinyl)-2-pyridinyl)oxy)benzamide]
CNc1cc(-c2cccnc2Oc2cc(NC(=O)c3cccc(C(C)C)c3)ccc2C)ccn1 [3-(1-methylethyl)-N-(4-methyl-3-((2′-(methylamino)-3,4′-bipyridin-2-yl)oxy)phenyl)benzamide]
CNc1nccc(-c2cccnc2Oc2ccc(NC(=O)Nc3cc(C4CCN(C)CC4)cc(C(F)(F)F)c3)cc2C)n1 [N-(3-methyl-4-((3-(2-(methylamino)-4-pyrimidinyl)-2-pyridinyl)oxy)phenyl)-N′-(3-(1-methyl-4-piperidinyl)-5-(trifluoromethyl)phenyl)urea]
CNc1cc(-c2cccnc2Oc2ccc(Cl)c(NC(=O)c3cccc(C(C)C)c3)c2)ccn1 [N-(2-chloro-5-((2′-(methylamino)-3,4′-bipyridin-2-yl)oxy)phenyl)-3-(1-methylethyl)benzamide]
CNc1ncnc(-c2cccnc2Oc2ccc(NC(=O)Nc3cc(C(F)(F)F)ccc3N(C)CCCN(C)C)c3ccccc23)n1 [N-(2-((3-(dimethylamino)propyl)(methyl)amino)-5-(trifluoromethyl)phenyl)-N′-(4-((3-(4-(methylamino)-1,3,5-triazin-2-yl)-2-pyridinyl)oxy)-1-naphthalenyl)urea]
CNc1nccc(-c2cccnc2Oc2cccc(C(=O)Nc3cccc(C(C)C)c3)c2)n1 [3-((3-(2-(methylamino)-4-pyrimidinyl)-2-pyridinyl)oxy)-N-(3-(1-methylethyl)phenyl)benzamide]
CNc1nccc(-c2cccnc2Oc2ccc(NC(=O)Nc3cccc(Cl)c3)cc2C)n1 [N-(3-chlorophenyl)-N′-(3-methyl-4-((3-(2-(methylamino)-4-pyrimidinyl)-2-pyridinyl)oxy)phenyl)urea]
CNc1ncnc(-c2cccnc2Oc2cc(C(=O)Nc3cc(C(F)(F)F)ccc3Cl)ccc2C)n1 [N-(2-chloro-5-(trifluoromethyl)phenyl)-4-methyl-3-((3-(4-(methylamino)-1,3,5-triazin-2-yl)-2-pyridinyl)oxy)benzamide]
CNc1nccc(-c2cccnc2Oc2cc(C(=O)Nc3cccc(Cc4ccccc4)c3)ccc2C)n1 [4-methyl-3-((3-(2-(methylamino)-4-pyrimidinyl)-2-pyridinyl)oxy)-N-(3-(phenylmethyl)phenyl)benzamide]
COc1ccc(C2CCCCC2)cc1NC(=O)c1ccc(C)c(Oc2ncccc2-c2ccncn2)c1 [N-(5-cyclohexyl-2-(methyloxy)phenyl)-4-methyl-3-((3-(4-pyrimidinyl)-2-pyridinyl)oxy)benzamide]
COc1ccc(C2CCCCC2)cc1NC(=O)c1ccc(C)c(Oc2ncccc2-c2ncnc(NCCCCN(C)C)n2)c1 [N-(5-cyclohexyl-2-(methyloxy)phenyl)-3-((3-(4-((4-(dimethylamino)butyl)amino)-1,3,5-triazin-2-yl)-2-pyridinyl)oxy)-4-methylbenzamide]

Source: patent publication US8476434B2, “Protein kinase modulators and method of use” (Amgen Inc., priority 2004, dated 2013)
